Tested on: A549 cells
Assay: Annexin V/PI staining
Assay type: cell-based, human
Description: Phosphatidylserine (PS), normally localized in the inner leaflet of the cell membrane, is translocated on the outer surface during induction of apoptosis. Annexin V/PI double staining was performed to analyze the externalization of PS on the outer plasmatic membrane surface together with cell population diversification (An^−/PI^−—living cells; An^+/PI^- early apoptotic cells; An^+/PI^+—late apoptotic/necrotic cells, and An^−/PI^+—dead cells). […] The A549 lung human alveolar adenocarcinoma cells were seeded at a density of 2 × 10^5/dish. After 24 h incubation, the cells were treated with indole phytoalexin 49 at 20 µM concentration alone or after 1 h pre-treatment with chloroquine (20 µM), and the control group with DMSO (v/v 0.02%). The whole population of treated cells (adherent and floating) was harvested at three different times (24, 48 and 72 h), washed with PBS and stained with Annexin V-Alexa Fluor® 647 antibody (Thermo Scientific, Rockford, IL, USA) in binding buffer for 20 min in the dark at RT. After the wash step, samples were stained with 1 μL of propidium iodide (final concentration 25 μg/mL) for 5 min and analyzed using a BD FACSCalibur^TM Flow Cytometer (Becton Dickinson, San Jose, CA, USA). Three independent analyses were performed.

## CC(C)(C)OC(=O)n1cc(CNC(=O)Nc2ccc(NC(=O)NCc3cn(C(=O)OC(C)(C)C)c4ccccc34)cc2)c2ccccc21 [Compound 49, N,N′-(1,4-phenylene)bis{N′-[1-(tert-butoxycarbonyl)indol-3-yl]methyl (urea)}]
A549, 20 µM, 24, 48 and 72 h, vs DMSO-treated control
  total PS externalization (Annexin V/PI): did not induce
A549, 49 20 µM + CQ 20 µM, all time points, vs DMSO, CQ or 49 alone
  number of cells in late apoptosis, combination with CQ: significantly increased
